Drawing on the Kinase Knowledgebase extract (Sharma et al. 2016), this text covers IC50 for 29 compounds.

In the first assay the target is EGFR (human) (UniProt P00533). Conditions: a431.
Chain of EGFR (human) (P00533 whole entry, looked up): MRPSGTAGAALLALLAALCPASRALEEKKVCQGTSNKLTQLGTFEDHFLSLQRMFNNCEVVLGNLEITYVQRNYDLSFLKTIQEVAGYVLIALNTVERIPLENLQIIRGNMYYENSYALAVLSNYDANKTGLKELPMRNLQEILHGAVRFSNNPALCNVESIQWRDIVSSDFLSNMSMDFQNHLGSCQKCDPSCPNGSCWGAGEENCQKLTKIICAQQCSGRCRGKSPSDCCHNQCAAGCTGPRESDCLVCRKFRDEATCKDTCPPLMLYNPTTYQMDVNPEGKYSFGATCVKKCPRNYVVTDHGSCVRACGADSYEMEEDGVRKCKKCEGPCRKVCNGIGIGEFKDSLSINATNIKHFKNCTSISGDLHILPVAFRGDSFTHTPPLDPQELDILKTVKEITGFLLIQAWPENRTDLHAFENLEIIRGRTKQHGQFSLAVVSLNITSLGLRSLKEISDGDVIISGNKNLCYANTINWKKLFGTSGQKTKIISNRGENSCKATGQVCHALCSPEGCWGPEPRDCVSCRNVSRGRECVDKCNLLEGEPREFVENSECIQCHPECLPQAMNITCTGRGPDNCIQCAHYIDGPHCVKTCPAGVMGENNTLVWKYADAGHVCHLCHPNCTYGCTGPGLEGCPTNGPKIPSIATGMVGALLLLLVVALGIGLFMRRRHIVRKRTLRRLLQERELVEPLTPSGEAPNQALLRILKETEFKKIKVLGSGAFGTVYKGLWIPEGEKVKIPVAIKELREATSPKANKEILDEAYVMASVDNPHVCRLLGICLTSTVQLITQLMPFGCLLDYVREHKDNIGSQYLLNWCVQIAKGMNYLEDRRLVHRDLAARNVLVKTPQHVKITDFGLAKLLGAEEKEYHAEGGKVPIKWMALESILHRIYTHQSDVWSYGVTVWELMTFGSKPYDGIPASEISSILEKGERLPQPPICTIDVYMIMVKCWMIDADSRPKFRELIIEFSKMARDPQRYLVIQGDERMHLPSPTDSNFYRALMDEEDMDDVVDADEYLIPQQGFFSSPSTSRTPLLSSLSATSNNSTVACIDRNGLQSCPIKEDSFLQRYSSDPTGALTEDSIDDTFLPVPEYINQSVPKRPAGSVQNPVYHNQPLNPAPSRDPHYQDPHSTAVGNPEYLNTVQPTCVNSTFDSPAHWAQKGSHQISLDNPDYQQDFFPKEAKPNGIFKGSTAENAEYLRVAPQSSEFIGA
In turn, `OC1CCN(C[C@@H](O)Cn2ccc(-c3ccc4ncnc(Nc5ccc(OCc6cccc(F)c6)c(Cl)c5)c4c3)c2)CC1` returned an IC50 of 1360 nM. Still for that read-out and setting: under `OC1CCN(C[C@H](O)Cn2ccc(-c3ccc4ncnc(Nc5ccc(OCc6cccc(F)c6)c(Cl)c5)c4c3)c2)CC1` stands 660 nM; under `O=S1(=O)CCC(CNCc2ccn(-c3ccc4ncnc(Nc5ccc(OCc6cccc(F)c6)c(Cl)c5)c4c3)c2)CC1`, 490 nM; under `CN(C)Cc1cn(-c2ccc3ncnc(Nc4ccc(F)c(Cl)c4)c3c2)cc1CCO`, 150 nM. With `O=C(Cn1ccc(-c2ccc3ncnc(Nc4ccc(OCc5cccc(F)c5)c(Cl)c4)c3c2)c1)N1CCCC1`, the IC50 was found to be 481 nM. Still for that read-out and setting: under `Fc1cccc(Cn2ncc3cc(Nc4ncnc5ccc(-c6ccn(CCCN7CCOCC7)c6)cc45)ccc32)c1` stands 426 nM. For `OC(CN1CCSC1)Cn1ccc(-c2ccc3ncnc(Nc4ccc(OCc5cccc(F)c5)c(Cl)c4)c3c2)c1` (centres undefined), the IC50 worked out at 553 nM. The IC50 values of the last two compounds are within 1.5-fold of each other.

Turning to `CS(=O)(=O)N1CCN(CC(O)Cn2ccc(-c3ccc4ncnc(Nc5ccc(OCc6cccc(F)c6)c(Cl)c5)c4c3)c2)CC1` (centres undefined), the IC50 was 1180 nM. The compound `CN1CCN(Cc2cn(-c3ccc4ncnc(Nc5ccc(F)c(Cl)c5)c4c3)cc2CCO)CC1` yielded an IC50 of 210 nM. Still for that read-out and setting: under `OCCN1CCN(CC(O)Cn2ccc(-c3ccc4ncnc(Nc5ccc(OCc6cccc(F)c6)c(Cl)c5)c4c3)c2)CC1` (centres undefined) stands 714 nM.

Compound `O[C@@H](CNC1CC1)Cn1ccc(-c2ccc3ncnc(Nc4ccc(OCc5cccc(F)c5)c(Cl)c4)c3c2)c1` had an IC50 of 708 nM. This IC50 and that of the compound before are within 1.5-fold of each other.

As to `Fc1cccc(COc2ccc(Nc3ncnc4ccc(-c5ccn(CCc6ccccn6)c5)cc34)cc2Cl)c1`, the IC50 was 1190 nM. Still for that read-out and setting: under `OC(CNCCN1CCOCC1)Cn1ccc(-c2ccc3ncnc(Nc4ccc5c(cnn5Cc5cccc(F)c5)c4)c3c2)c1` (centres undefined) stands 714 nM; under `OCCc1cn(-c2ccc3ncnc(Nc4ccc(F)c(Cl)c4)c3c2)cc1CN1CCCCC1`, 220 nM. Same read-out and setting: under `CC(Nc1ncnc2ccc(-n3cc(CCO)c(CN4CCCCC4)c3)cc12)c1ccccc1` (centres undefined) stands 560 nM.

Compound `CCOC(=O)N1CCN(CC(O)Cn2ccc(-c3ccc4ncnc(Nc5ccc6c(cnn6Cc6cccc(F)c6)c5)c4c3)c2)CC1` (centres undefined) yielded an IC50 of 270 nM. The same measure, in the same setting: under `Fc1cccc(Cn2ncc3cc(Nc4ncnc5ccc(-c6ccn(CC7CNCCO7)c6)cc45)ccc32)c1` (centres undefined) stands 710 nM. Same read-out and setting: under `CCOC(=O)C1CCN(CC(O)Cn2ccc(-c3ccc4ncnc(Nc5ccc(OCc6cccc(F)c6)c(Cl)c5)c4c3)c2)CC1` (centres undefined) stands 2000 nM; under `OC[C@@H]1CCCN1C[C@@H](O)Cn1ccc(-c2ccc3ncnc(Nc4ccc(OCc5cccc(F)c5)c(Cl)c4)c3c2)c1`, 252 nM. On to `OCCc1cn(-c2ccc3ncnc(Nc4ccc(F)c(Cl)c4)c3c2)cc1CN1CCCC1`, for which the half-inhibitory concentration (IC50) worked out at 60 nM. On the same count and under the same terms, under `CCOC(=O)C1CCCN(CC(O)Cn2ccc(-c3ccc4ncnc(Nc5ccc(OCc6cccc(F)c6)c(Cl)c5)c4c3)c2)C1` (centres undefined) stands 1700 nM. As for `Fc1cccc(COc2ccc(Nc3ncnc4ccc(-c5ccn(CCN6CCCCC6)c5)cc34)cc2Cl)c1`, the IC50 is 2860 nM. Compared with the last compound, the IC50 is about 1.7-fold higher. The same measure, in the same setting: under `Fc1cccc(Cn2ncc3cc(Nc4ncnc5ccc(-c6ccn(CCOC7CCCCO7)c6)cc45)ccc32)c1` (centres undefined) stands 352 nM; under `O=C1CN(CC(O)Cn2ccc(-c3ccc4ncnc(Nc5ccc(OCc6cccc(F)c6)c(Cl)c5)c4c3)c2)CCN1` (centres undefined), 1220 nM. Turning to `COC[C@H](O)Cn1ccc(-c2ccc3ncnc(Nc4ccc(OCc5cccc(F)c5)c(Cl)c4)c3c2)c1`, the IC50 stood at 462 nM. Same read-out and setting: under `O=C(Cn1ccc(-c2ccc3ncnc(Nc4ccc(OCc5cccc(F)c5)c(Cl)c4)c3c2)c1)N1CCC(N2CCOCC2)CC1` stands 853 nM; under `OCc1cc(-c2ccc3ncnc(Nc4ccc(OCc5cccc(F)c5)c(Cl)c4)c3c2)c[nH]1`, 4560 nM. Same read-out and setting: under `Cc1ccc(Oc2ccc(Nc3ncnc4ccc(-n5cc(CCO)c(C(=O)NCCN6CCCC6)c5)cc34)cc2C)cn1` stands 140 nM.

For another assay, the target named is EGFR (human) (UniProt P00533).
Conditions: not given
Compound `CCN(CC)CCNC(=O)c1cn(-c2ccc3ncnc(Nc4ccc5c(cnn5Cc5ccc(F)cc5)c4)c3c2)cc1CCO` returned an IC50 of 156 nM.
